Laboratory results from ChEMBL document CHEMBL1135758, “Toward a pharmacophore for drugs inducing the long QT syndrome: insights from a CoMFA study of HERG K(+) channel blockers” (J Med Chem, 2002).

Columns and labels:
[1] = biological target: T1, Voltage-gated inwardly rectifying potassium channel KCNH2 (Homo sapiens, UniProt Q12809); assay: (§1) K+ channel blocking activity in human embryonic kidney cells expressing HERG Kv11.1
[2] = biological target: T1, Voltage-gated inwardly rectifying potassium channel KCNH2; assay: K+ channel blocking activity in Chinese hamster ovary cells expressing HERG Kv11.1; assay type: functional, cell-based
[3] = biological target: T1, Voltage-gated inwardly rectifying potassium channel KCNH2; assay: as §1; assay type: functional, cell-based

T1 sequence (Q12809 whole entry): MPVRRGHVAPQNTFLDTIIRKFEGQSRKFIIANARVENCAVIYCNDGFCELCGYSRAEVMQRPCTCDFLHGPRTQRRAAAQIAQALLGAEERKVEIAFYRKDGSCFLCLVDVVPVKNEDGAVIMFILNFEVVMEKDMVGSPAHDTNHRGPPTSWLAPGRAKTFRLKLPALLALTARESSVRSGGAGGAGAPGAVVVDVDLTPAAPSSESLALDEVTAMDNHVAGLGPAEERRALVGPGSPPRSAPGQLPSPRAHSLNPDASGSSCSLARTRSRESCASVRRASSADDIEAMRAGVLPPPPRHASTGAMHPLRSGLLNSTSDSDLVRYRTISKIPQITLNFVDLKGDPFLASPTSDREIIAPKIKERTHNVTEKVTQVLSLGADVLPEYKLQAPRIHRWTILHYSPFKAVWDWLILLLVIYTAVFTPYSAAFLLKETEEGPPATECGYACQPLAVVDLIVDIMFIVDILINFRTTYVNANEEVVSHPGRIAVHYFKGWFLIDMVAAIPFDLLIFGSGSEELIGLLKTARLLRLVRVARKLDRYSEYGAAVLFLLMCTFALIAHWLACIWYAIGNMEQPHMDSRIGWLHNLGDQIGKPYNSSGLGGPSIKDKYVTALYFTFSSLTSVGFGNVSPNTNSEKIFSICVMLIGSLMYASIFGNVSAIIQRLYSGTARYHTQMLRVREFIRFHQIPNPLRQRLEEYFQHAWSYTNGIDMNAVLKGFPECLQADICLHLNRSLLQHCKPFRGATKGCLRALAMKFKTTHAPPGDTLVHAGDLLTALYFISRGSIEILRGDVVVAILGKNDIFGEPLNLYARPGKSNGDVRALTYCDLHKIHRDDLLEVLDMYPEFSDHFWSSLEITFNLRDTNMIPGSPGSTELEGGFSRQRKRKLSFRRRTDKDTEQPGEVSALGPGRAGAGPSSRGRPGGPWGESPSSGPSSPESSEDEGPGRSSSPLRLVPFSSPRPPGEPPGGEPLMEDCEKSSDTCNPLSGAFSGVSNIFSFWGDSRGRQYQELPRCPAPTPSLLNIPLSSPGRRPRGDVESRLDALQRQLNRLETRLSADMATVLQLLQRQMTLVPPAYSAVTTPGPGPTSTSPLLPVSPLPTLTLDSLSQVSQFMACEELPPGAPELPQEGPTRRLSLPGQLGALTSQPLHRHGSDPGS

Row | SMILES | IC50 [2] [µM] | other results
1 | CN(c1nccc(=O)[nH]1)C1CCN(c2nc3ccccc3n2Cc2ccc(F)cc2)CC1 [MIZOLASTINE] | – | IC50 [1]: 0.35 µM
2 | CN1CCN(CCCCN2C(=O)CN(/N=C/c3ccc(-c4ccc(Cl)cc4)o3)C2=O)CC1 [AZIMILIDE] | 0.56 | –
3 | C[C@@H]1CN(c2c(F)c(N)c3c(=O)c(C(=O)O)cn(C4CC4)c3c2F)C[C@H](C)N1 [SPARFLOXACIN] | – | IC50 [3]: 34.4 µM
4 | COc1c(N2CCNC(C)C2)c(F)cc2c(=O)c(C(=O)O)cn(C3CC3)c12 (centres undefined) [GATIFLOXACIN] | 130 | –
